Read-outs that look alike come from different tables or passages of the source.

Test [1] concerns the target human DGKζ (Homo sapiens (Human), UniProt Q13574). Kind of test: biochemical. As to conditions: Table A; liposome (LIPGLO) assay; read-out: DGKζ. The class given is biochemical.
Test [2] concerns the target Human DGKα(9-727) (Homo sapiens (Human), UniProt P23743). Nature of the test: biochemical.
Test [3] concerns Human venous whole blood (IFN-γ). Kind of test: Human whole blood IFN-γ assay. The class given is cell-based. As to conditions: human whole blood IFN-γ, read-out: INFg Whole Blood. On the procedure: Assay 10: Human Whole Blood IFN-γ Assay
Human venous whole blood (22.5 μL per well), obtained from healthy donors, was pre-treated with compounds for one hour at 37° C. in a humidified 95% air/5% CO2 incubator. The blood was stimulated with 2.5 μL anti-human CD3 and anti-CD28 mAb at a final concentration of 1 μg/mL each for 24 hours at 37° C. IFN-γ in the supernatants was measured using AlphLISA kit (Cat #AL217).

For test [4], the system named is human venous whole blood, CD8 positive population (pERK). Nature of the test: DGK human whole blood pERK assay. The class given is cell-based. Put shortly:
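Heparinized whole blood from healthy donors preincubated with compound 1 hour at 37° C. Stimulation used anti-CD3 at 1 μg/mL final plus cross-linking goat anti-mouse IgG for 15 minutes. Flow cytometry scored percentage pERK-positive cells among CD8-positive cells.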

[5] abbreviates: Table A, liposome (LIPGLO) assay, read-out: DGKα.
Where [6] appears, read: human whole blood pERK, read-out: DGK HWB.
Where [7] appears, read: Homo sapiens, CD8 positive, human whole blood pERK, read-out: DGK HWB.
The mark [8] stands for this setting: Homo sapiens, CD8 positive, human whole blood, CD8 positive population, anti-CD3 stimulation, top concentration 20 μM, read-out: DGK HWB (human whole blood pERK).
The mark [9] stands for this setting: liposome (LIPGLO) assay, Table A, read-out: DGKα LIPGLO IC50.

Chain of Human DGKα(9-727) (P23743 whole entry, looked up): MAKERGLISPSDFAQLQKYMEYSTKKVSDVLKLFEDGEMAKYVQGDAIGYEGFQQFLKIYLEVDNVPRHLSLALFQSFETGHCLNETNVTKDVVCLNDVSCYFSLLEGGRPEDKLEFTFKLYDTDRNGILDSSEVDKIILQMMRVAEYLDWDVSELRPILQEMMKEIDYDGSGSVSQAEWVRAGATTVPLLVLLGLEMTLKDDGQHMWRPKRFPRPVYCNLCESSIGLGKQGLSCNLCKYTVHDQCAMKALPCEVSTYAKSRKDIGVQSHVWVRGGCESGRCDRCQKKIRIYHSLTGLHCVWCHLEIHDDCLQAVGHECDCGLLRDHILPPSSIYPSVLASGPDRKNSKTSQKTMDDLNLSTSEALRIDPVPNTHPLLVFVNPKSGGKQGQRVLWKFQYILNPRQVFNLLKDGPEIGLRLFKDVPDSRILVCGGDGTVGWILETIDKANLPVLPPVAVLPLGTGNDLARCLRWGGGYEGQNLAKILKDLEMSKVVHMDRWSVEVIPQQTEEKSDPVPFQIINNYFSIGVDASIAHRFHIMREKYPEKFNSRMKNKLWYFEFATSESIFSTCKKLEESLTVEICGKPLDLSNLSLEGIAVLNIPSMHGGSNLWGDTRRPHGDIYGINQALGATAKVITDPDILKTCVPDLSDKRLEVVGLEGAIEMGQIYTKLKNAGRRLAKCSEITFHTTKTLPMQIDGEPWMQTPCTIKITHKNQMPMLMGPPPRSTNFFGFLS
Chain of human DGKζ (Q13574 whole entry, looked up): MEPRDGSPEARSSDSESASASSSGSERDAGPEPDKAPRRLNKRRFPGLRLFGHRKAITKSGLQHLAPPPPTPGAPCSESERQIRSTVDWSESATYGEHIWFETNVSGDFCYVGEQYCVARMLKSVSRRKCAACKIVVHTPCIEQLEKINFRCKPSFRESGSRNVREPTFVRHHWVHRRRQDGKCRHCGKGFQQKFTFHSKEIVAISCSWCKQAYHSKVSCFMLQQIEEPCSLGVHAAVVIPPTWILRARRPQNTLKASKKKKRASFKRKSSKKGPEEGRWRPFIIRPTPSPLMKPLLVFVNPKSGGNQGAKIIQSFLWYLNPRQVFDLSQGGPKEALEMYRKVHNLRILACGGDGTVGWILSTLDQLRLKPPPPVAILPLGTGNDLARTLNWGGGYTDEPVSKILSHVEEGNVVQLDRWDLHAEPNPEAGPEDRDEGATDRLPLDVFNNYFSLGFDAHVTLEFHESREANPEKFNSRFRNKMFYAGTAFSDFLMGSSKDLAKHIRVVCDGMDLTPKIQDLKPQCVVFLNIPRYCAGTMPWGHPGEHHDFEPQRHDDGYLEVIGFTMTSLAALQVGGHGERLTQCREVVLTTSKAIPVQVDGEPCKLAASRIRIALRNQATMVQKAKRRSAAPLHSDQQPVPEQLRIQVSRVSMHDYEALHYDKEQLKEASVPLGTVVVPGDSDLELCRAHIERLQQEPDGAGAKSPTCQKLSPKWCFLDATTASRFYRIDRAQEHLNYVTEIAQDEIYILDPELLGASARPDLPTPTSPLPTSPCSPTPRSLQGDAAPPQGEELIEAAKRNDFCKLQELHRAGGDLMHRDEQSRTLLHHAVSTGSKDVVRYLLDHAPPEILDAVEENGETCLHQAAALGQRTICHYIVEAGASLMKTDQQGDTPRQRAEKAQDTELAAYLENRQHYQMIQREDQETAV

Regarding `CCO[C@@H]1CN(c2cc(=O)n(C)c3ccc(C#N)nc23)CC[C@H]1Oc1cccc(C(F)(F)F)c1` [Example 264, 8-((3R,4R)-3-ethoxy-4-(3-(trifluoromethyl)phenoxy)piperidin-1-yl)-5-methyl-6-oxo-5,6-dihydro-1,5-naphthyridine-2-carbonitrile], the values for the IC50 in test [1] and in test [2] (setting [5]) were 17 µM and 4 µM, respectively. In test [3], the EC50 stood at 6.5 µM.

As to `CC(C)Oc1ccc(O[C@H]2CCN(c3cc(=O)n(C)c4ccc(C#N)nc34)C[C@@H]2O)nc1` (single isomer, unassigned) [Example 268, (±)-trans-8-(3-hydroxy-4-((5-isopropoxypyridin-2-yl)oxy)piperidin-1-yl)-5-methyl-6-oxo-5,6-dihydro-1,5-naphthyridine-2-carbonitrile], the IC50 in test [1] came out at 17 µM; in test [2] (setting [5]) it was 1.3 µM.

For `CO[C@@H]1CN(c2nc(=O)n(C)c3ccc(C#N)nc23)CC[C@H]1Oc1cccc(C(F)(F)F)c1` (single isomer, unassigned) [Example 276], the IC50 in test [1] was found to be 2 µM; in test [2] (setting [5]) it was 1 µM.

On to `Cn1c(=O)nc(N2CC[C@@H](Oc3cccc(C(F)(F)F)c3)[C@H](O)C2)c2nc(C#N)ccc21` (single isomer, unassigned) [Example 274, (+/−)-trans-4-(3-hydroxy-4-(3-(trifluoromethyl)phenoxy)piperidin-1-yl)-1-methyl-2-oxo-1,2-dihydropyrido[3,2-d]pyrimidine-6-carbonitrile], for which the IC50 in test [1] turned out to be 15 µM; in test [2] (setting [5]) it was 14 µM. For the same compound, in test [3] (Homo sapiens), the EC50 came to 8.2 µM.

Take `CC1CN(c2cc(=O)n(C)c3ccc(C#N)nc23)CCC1N(C)C(=O)c1ccc(F)cc1` (single isomer, unassigned) [Example 284, N-(1-(6-Cyano-1-methyl-2-oxo-1,2-dihydro-1,5-naphthyridin-4-yl)-3-methylpiperidin-4-yl)-4-fluoro-N-methylbenzamide]: the IC50 in test [1] was 120 µM; in test [2] (setting [5]) it was 23 µM. The EC50 in test [4] (setting [6]) came to 20 µM.

Consider `C[C@H]1CN(c2cc(=O)n(C)c3ccc(C#N)nc23)[C@@H](C)CC1N(C)c1ccc(C(F)(F)F)cc1` (single isomer, unassigned) [Example 319], for which the IC50 in test [1] was 130 µM; in test [2] (setting [5]), 61 µM.

Consider `Cn1c(=O)cc(N2CC[C@H](Oc3cccc(C(F)(F)F)c3)[C@@H](O)C2)c2nc(C#N)ccc21` (racemic) [Example 259, (±)-trans-8-(3-hydroxy-4-(3-(trifluoromethyl)phenoxy)piperidin-1-yl)-5-methyl-6-oxo-5,6-dihydro-1,5-naphthyridine-2-carbonitrile], for which the IC50 in test [1] is 150 µM; in test [2] (setting [5]), 1.1 µM. Besides, the EC50 in test [3] (Homo sapiens) was 20 µM.

Regarding `CC1CN(c2c(C#N)c(=O)n(C)c3ccc(C#N)nc23)CCC1N(C)Cc1ccc(F)cc1` (single isomer, unassigned) [Example 322, 8-(4-((4-Fluorobenzyl)(methyl)amino)-3-methylpiperidin-1-yl)-5-methyl-6-oxo-5,6-dihydro-1,5-naphthyridine-2,7-dicarbonitrile], the IC50 worked out at 78 µM in test [1] and 6.8 µM in test [2] (setting [5]). For the same compound, in test [4] (setting [7]), the EC50 was 20 µM.

As to `CC1CN(c2cc(=O)n(C)c3ccc(C#N)nc23)CCC1N(C)C(=O)c1ccc(F)cc1` (single isomer, unassigned) [Example 285, N-(1-(6-Cyano-1-methyl-2-oxo-1,2-dihydro-1,5-naphthyridin-4-yl)-3-methylpiperidin-4-yl)-4-fluoro-N-methylbenzamide], the IC50 in test [1] was 130 µM; in test [2] (setting [5]), 30 µM. Besides, the EC50 in test [4] (setting [6]) turned out to be 20 µM.

Regarding `CCO[C@H]1CN(c2cc(=O)n(C)c3ccc(C#N)nc23)CC[C@@H]1OCc1ccc(OC(C)C)cn1` (single isomer, unassigned) [Example 384], the EC50 in test [4] (setting [8]) was 4 µM. Further, the IC50 in test [2] (setting [9]) was determined as 0.82 µM.

With `CO[C@H]1CN(c2cc(=O)n(C)c3ccc(C#N)nc23)CC[C@@H]1Oc1ccc(OC(C)C)cn1` (single isomer, unassigned) [Example 269, (±)-trans-8-(4-((5-isopropoxypyridin-2-yl)oxy)-3-methoxypiperidin-1-yl)-5-methyl-6-oxo-5,6-dihydro-1,5-naphthyridine-2-carbonitrile], the IC50 is 1.5 µM in test [1] and 0.047 µM in test [2] (setting [5]). The EC50 in test [4] (setting [7]) worked out at 2.1 µM.

Turning to `CO[C@H]1CN(c2cc(=O)n(C)c3ccc(C#N)nc23)CC[C@@H]1Oc1ccc(OC(C)C)cn1` (single isomer, unassigned) [Example 270, (±)-trans-8-(4-((5-isopropoxypyridin-2-yl)oxy)-3-methoxypiperidin-1-yl)-5-methyl-6-oxo-5,6-dihydro-1,5-naphthyridine-2-carbonitrile], the IC50 in test [1] is 12 µM; in test [2] (setting [5]), 2.4 µM.

Take `CO[C@@H]1CN(c2nc(=O)n(C)c3ccc(C#N)nc23)CC[C@H]1Oc1cccc(C(F)(F)F)c1` (single isomer, unassigned) [Example 277]: the IC50 in test [1] came to 3.9 µM; in test [2] (setting [5]), 4.9 µM.

For the compound `CC1CN(c2c(C#N)c(=O)n(C)c3ccc(C#N)nc23)CCC1N(C)Cc1ccc(F)cc1` (single isomer, unassigned) [Example 325, 8-(4-((4-Fluorobenzyl)(methyl)amino)-3-methylpiperidin-1-yl)-5-methyl-6-oxo-5,6-dihydro-1,5-naphthyridine-2,7-dicarbonitrile], the IC50 is 50 µM in test [1] and 49 µM in test [2] (setting [5]). Also, in test [4] (setting [6]), the EC50 came out at 20 µM.

On to `CC1CN(c2cc(=O)n(C)c3ccc(C#N)nc23)CCC1N(C)C(=O)c1ccc(F)cc1` (single isomer, unassigned) [Example 287, N-(1-(6-Cyano-1-methyl-2-oxo-1,2-dihydro-1,5-naphthyridin-4-yl)-3-methylpiperidin-4-yl)-4-fluoro-N-methylbenzamide], for which the IC50 in test [1] came out at 7.4 µM; in test [2] (read-out: DGKα), 3.2 µM.

In the case of `Cn1c(=O)nc(N2CC[C@@H](Oc3cccc(C(F)(F)F)c3)[C@H](O)C2)c2nc(Cl)ccc21` (racemic) [Example 271, (+/−)-trans-6-chloro-4-(3-hydroxy-4-(3-(trifluoromethyl)phenoxy)piperidin-1-yl)-1-methylpyrido[3,2-d]pyrimidin-2(1H)-one], the IC50 worked out at 28 µM in test [1] and 10 µM in test [2] (setting [5]). Moreover, the EC50 in test [3] (Homo sapiens) was determined as 20 µM.

Turning to `Cn1c(=O)cc(N2CC[C@H](Oc3cccc(C(F)(F)F)c3)[C@@H](O)C2)c2nc(C#N)ccc21` (racemic) [Example 260, (±)-trans-8-(3-hydroxy-4-(3-(trifluoromethyl)phenoxy)piperidin-1-yl)-5-methyl-6-oxo-5,6-dihydro-1,5-naphthyridine-2-carbonitrile], the IC50 in test [1] stood at 140 µM; in test [2] (read-out: DGKα) it was 1.9 µM.

As to `COc1ccc(NC2C[C@H](C)N(c3cc(=O)n(C)c4ccc(C#N)nc34)C[C@H]2C)nc1` (single isomer, unassigned) [Example 280], the IC50 in test [1] is 170 µM; in test [2] (setting [5]), 0.38 µM. For the same compound, in test [3], the EC50 was 20 µM.

For `CCO[C@H]1CN(c2cc(=O)n(C)c3ccc(C#N)nc23)CC[C@@H]1OCc1ccc(OC(C)C)cn1` [Example 383, 8-((3S,4S)-3-ethoxy-4-((5-isopropoxypyridin-2-yl)methoxy)piperidin-1-yl)-5-methyl-6-oxo-5,6-dihydro-1,5-naphthyridine-2-carbonitrile], the EC50 in test [4] (setting [8]) is 20 µM. In addition, in test [2] (setting [9]), the IC50 turned out to be 6.1 µM.

In the case of `COc1ccc(NC2C[C@H](C)N(c3cc(=O)n(C)c4ccc(C#N)nc34)C[C@H]2C)nc1` (single isomer, unassigned) [Example 281], the IC50 in test [1] was determined as 2.8 µM; in test [2] (setting [5]) it was 2.7 µM. In addition, in test [3], the EC50 stood at 9.8 µM.

In the case of `CC(C)Oc1ccc(O[C@H]2CCN(c3cc(=O)n(C)c4ccc(C#N)nc34)C[C@@H]2O)nc1` (single isomer, unassigned) [Example 267, (±)-trans-8-(3-hydroxy-4-((5-isopropoxypyridin-2-yl)oxy)piperidin-1-yl)-5-methyl-6-oxo-5,6-dihydro-1,5-naphthyridine-2-carbonitrile], the IC50 is 10 µM in test [1] and 0.26 µM in test [2] (setting [5]). Moreover, the EC50 in test [3] (Homo sapiens) amounted to 17 µM.

On to `C[C@H]1CN(c2cc(=O)n(C)c3ccc(C#N)nc23)[C@@H](C)CC1N(C)c1ccc(C(F)(F)F)cc1` (single isomer, unassigned) [Example 318], for which, in test [4] (setting [7]), the EC50 came to 20 µM. Further, the IC50 in test [2] (setting [5]) came to 130 µM.

Regarding `Cn1c(=O)nc(N2CC[C@@H](Oc3cccc(C(F)(F)F)c3)[C@H](O)C2)c2nc(Cl)ccc21` (racemic) [Example 272, (+/−)-trans-6-chloro-4-(3-hydroxy-4-(3-(trifluoromethyl)phenoxy)piperidin-1-yl)-1-methylpyrido[3,2-d]pyrimidin-2(1H)-one], the IC50 in test [1] was 24 µM; in test [2] (setting [5]), 19 µM. In test [3], the EC50 was 16 µM.

The values are drawn from US11964973B2 (priority 2019, dated 2024).
